# Measured values taken from patent US20190358264A1, “METHODS OF TREATING DISEASES ASSOCIATED WITH ILC2 CELLS” (Limm Therapeutics, SA, priority 2016, published 2019).
# Tested on: Th2
# Test: In vitro stimulation of Th2 cells with NmU23, type 2 cytokine gene expression
# Assay type: cell-based, mouse
# Conditions: NmU23 100 ng/mL in vitro (FIG. 9f)
# Source text: FIGS. 9a-9i: FIG. 9a, Nmur1 quantitative RT-PCR analysis in the lungs at day 6 post Nippostrongylus brasiliensis (NB)—infection in lung. Eosinophils (Eo); Mast cells (Mast); Macrophages (Mø); Neutrophils (Neu); naive T cells (T); Innate lymphoid cells type 2 (ILC2). FIG. 9b, NMUR1 expression in human adaptive (CD4 T cells) and innate type 2 lymphocytes ILC2 from blood. FIG. 9c, Type 2 cytokine gene expression in human ILC2 and Th2 after in vitro stimulation with the peptide NmU25. FIG. 9d, Nmur1 expression in lung ILC2 before and after infection (at day 6). FIG. 9e, Nmur1 expression in steady state in Common lymphoid progenitor (CLP); Common helper innate lymphoid progenitor (CHILP), Bone marrow ILC2 progenitor (ILC2P) and Eo, Mast, Mø, Neu, Dendritic cells (DC); naive T cells (T); T-helper 2 cells (Th2); memory T cells, B cells (B), Lamina Propria glial cells (G) and neurons (N). n=3-6. FIG. 9f, Type 2 cytokine gene expression in intestinal ILC2 and Th2 after in vitro stimulation with the peptide NmU23 (100 ng/mL). n=3-6. FIG. 9g, Confocal analysis of intestinal lamina propria. Green: neurons (Ret^GFP); Cyan: KLRG1; red: CD3. […]
# Total RNA was extracted using RNeasy micro kit (Qiagen) according to the manufacturer's protocol. RNA concentration was determined using Nanodrop Spectrophotometer (Nanodrop Technologies). Quantitative real-time RT-PCR was performed as previously described^5,8. […]
substance,measurement,value
"recombinant mouse Neuromedin U 23 peptide (FKAEYQSPSVGQSKGYFLFRPRN; listed as Mus musculus) [NmU23, NMUR1 agonist neuropeptide, Phoenix pharmaceuticals]",type 2 cytokine gene expression in adaptive T cell counterparts (Th2),unperturbed
